Publication PMC3448856 (Biochemistry, 2012)
Several values for one entry are separate records, joined by “and”; a condition that tells them apart may be missing. Equal entries are not always repeated. Peptide text beside a SMILES is read from it. * marks the point of attachment. Tos = Cc1ccc(S(=O)(=O)*)cc1; Bn = c1ccc(C*)cc1

Key:
[1] = test system: self-complementary sequence 5′-GAGAGCGCTCTC; experiment: UV melting, self-complementary DNA; format: binding; conditions: TM without compound 36.4 °C
[2] = test system: T98G cells; experiment: Short term; format: cell-based, human; conditions: for LD10 concentration: 72 h MTS assay
[3] = biological target: T1, APE-1 (Homo sapiens, UniProt P27695); experiment: Gel-based assay for APE-1 inhibitors; format: biochemical; conditions: in gel excision assay; 20 nM APE-1, 100 nM duplex DNA with THF abasic site
T1 sequence (P27695 whole entry): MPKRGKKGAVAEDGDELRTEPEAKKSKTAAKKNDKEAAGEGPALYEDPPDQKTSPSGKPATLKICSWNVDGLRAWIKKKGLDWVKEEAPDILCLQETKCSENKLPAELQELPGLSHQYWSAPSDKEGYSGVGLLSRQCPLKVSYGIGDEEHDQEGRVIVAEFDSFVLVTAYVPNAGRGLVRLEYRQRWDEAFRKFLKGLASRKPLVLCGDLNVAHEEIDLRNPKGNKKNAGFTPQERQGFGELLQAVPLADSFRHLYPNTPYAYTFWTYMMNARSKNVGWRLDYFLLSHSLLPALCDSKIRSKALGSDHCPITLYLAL

[4] = test system: hairpin with the THF abasic site; experiment: UV melting, hairpin with THF abasic site; format: binding
[5] = biological target: APE-1 activity in T98G cell nuclear lysates (Homo sapiens, UniProt P27695); experiment: Molecular beacon assay with T98G cell nuclear lysates; format: biochemical; conditions: EC2nM APE-1 activity
Sequence of APE-1 activity in T98G cell nuclear lysates (P27695 whole entry, stated change not applied): as the sequence (P27695 whole entry) above

[6] = test system: T98G cells; experiment: Long term; format: cell-based, human
[7] = test system: T98G cells; experiment: Quantification of abasic sites; conditions: for level of ARS in combination with MeLex: 80 μM MeLex + 0.25 μM compound, through at least 12 h; for level of aldehyde reactive sites (ARS): 0.25 μM compound alone, up to 18 h, background 1/10^5 nucleotides
[8] = test system: T98G cells; experiment: Potentiation of MeLex cytotoxicity, long term; format: cell-based, human; conditions: long term assay; for LD50 of MeLex in the presence of LD10 concentration of inhibitor: MeLex alone 9.9 μM
[9] = test system: T98G cells; experiment: Potentiation of MeLex cytotoxicity, short-term; format: cell-based, human; conditions: for LD50 of MeLex in the presence of LD10 concentration of inhibitor: 72 h MTS assay, MeLex by itself 267 μM
[10] = test system: VERA kidney cell line; conditions: read-out: IC50 for the toxicity; cited from earlier work
[11] = biological target: T1, APE-1; experiment: Molecular beacon assay for APE-1 endonuclease inhibition; format: biochemical; conditions: endonuclease activity; cells printed ND
[12] = test system: APE-1 redox; conditions: read-out: IC50 for redox inhibition; cited from earlier work
[13] = test system: HEYC-2 ovarian tumor cells; conditions: read-out: IC50 for cell growth; cited from earlier work
[14] = test system: APE-1 endonuclease activity; conditions: at 100 μM concentration; cited from earlier work
[15] = biological target: T1, APE-1; experiment: Fluorescence binding of 4 to APE-1 and displacement by E3330; conditions: displacement of 6 μM 4 from 1 μM APE-1
[16] = test system: SKOV-3X ovarian tumor cells; conditions: read-out: IC50 for cell growth; cited from earlier work
[17] = biological target: THF modified hairpin DNA; experiment: EtBr fluorescence titration with THF modified hairpin DNA; format: binding; conditions: THF modified hairpin DNA (data not shown)
[18] = biological target: double-stranded DNA; conditions: cited from earlier work
[19] = biological target: unmodified hairpin DNA; experiment: EtBr fluorescence titration with unmodified hairpin DNA; format: binding; conditions: unmodified hairpin DNA (data not shown)
[20] = test system: DNA with a bulge; conditions: cited from earlier work

Compound: C/C(=N\Nc1cc(C)nc2cc3c(cc12)OCO3)c1cn(C)n(-c2ccccc2)c1=O [Compound 1]
- TM of DNA in presence of compound [1]: 40.8 °C
- LD10 concentration [2]: 2.20 µM
- IC50 [3]: 4.4 µM
- increase in stability (TM) of hairpin [4]: > 9 °C
- Ki [5]: 450 nM
- LD10 concentration ([6]; long term assay): 0.17 µM
- level of ARS in combination with MeLex [7]: 50 sites/10^5 nucleotides
- LD50 of MeLex in the presence of LD10 concentration of inhibitor [8]: 2.0 µM
- LD50 of MeLex in the presence of LD10 concentration of inhibitor [9]: 54 µM

Compound: COc1cccc(/C=N/Nc2cc(C)nc3cc4c(cc23)OCO4)c1 [Compound 2]
- IC50 [3]: 10.1 µM
- Ki [5]: 240 nM

Compound: Cc1cc(N/N=C/c2ccc3c(c2)OCO3)c2cc3c(cc2n1)OCO3 [Compound 3]
- IC50 [3]: 2.9 µM
- IC50 [10]: 630 nM

Compound: CCn1c2ccccc2c2cc(/C=N/Nc3cc(C)nc4cc5c(cc34)OCO5)ccc21 [Compound 4]
- TM of DNA in presence of compound [1]: 37.3 °C
- LD50 ([2]; 3-day MTS assay): 0.96 µM
- LD10 concentration [2]: 0.25 µM
- IC50 [3]: 4.1 µM
- increase in stability (TM) of hairpin [4]: not appreciably
- Ki [5]: 210 nM
- LD50 ([6]; long term (10-day) assay, called clonogenic): 0.19 µM
- LD10 concentration ([6]; long term assay): 0.08 µM
- level of aldehyde reactive sites (ARS) [7]: approximately 17 ARS/10^5 nucleotides
- level of ARS in combination with MeLex [7]: 63 sites/10^5 nucleotides
- potentiation of MeLex toxicity ([8]; LD10 concentration of inhibitor): approximately 5 fold
- LD50 of MeLex in the presence of LD10 concentration of inhibitor [8]: 1.6 µM
- LD50 of MeLex in the presence of LD10 concentration of inhibitor [9]: 49 µM
- potentiation of MeLex toxicity (fold more sensitive) ([9]; short term assay, LD10 concentration of inhibitor): approximately 5 fold

Compound: Cc1cc(N/N=C/c2c(C)n(C)n(-c3ccccc3)c2=O)c2cc3c(cc2n1)OCO3 [Compound 5]
- LD10 concentration [2]: 6.50 µM
- fold less toxic than 4 ([2]; assay (short or long term) not stated): ~20 fold
- IC50 [3]: 34.4 µM
- Ki [5]: 1410 nM
- LD10 concentration ([6]; long term assay): 0.90 µM
- increase in ARS above background ([7]; 0.25 μM compound): approximately 4 fold
- LD50 of MeLex in the presence of LD10 concentration of inhibitor [8]: 3.6 µM
- LD50 of MeLex in the presence of LD10 concentration of inhibitor [9]: 80 µM

Compound: COc1ccc2c(C)cc(N/N=C(\C)c3cn(C)n(-c4ccccc4)c3=O)nc2c1 [Compound 8]
- IC50 [3]: > 100 µM
- level of aldehyde reactive sites (ARS) [7]: same as background
- Ki [11]: > 100 µM

Compound: O=C(NNc1ccnc2cc(Cl)ccc12)/C(=C/c1ccccc1Cl)NC(=O)c1ccccc1 [Compound 15]
- Ki [11]: > 100 µM

Compound: Nc1ncnc2c1ncn2C1OC(C(=O)NCC(=O)O)C(O)C1O (stereo not drawn) [Compound 16]
- Ki [11]: > 100 µM

Compound: CC(N)C(=O)NC1C(CO)OC(n2cnc3c(N)ncnc32)C1O (stereo not drawn) [Compound 17]
- Ki [11]: > 100 µM

Compound: CNC(=O)Oc1cc([N+](C)(C)C)ccc1C [Compound 21]
- Ki [11]: > 100 µM

Compound: CC(NC(=O)/C(=C\c1ccccc1)NC(=O)c1ccccc1)c1ccccc1 (stereo not drawn) [Compound 22]
- Ki [11]: > 100 µM

Compound: Cc1ccc(S(=O)(=O)NC(CSCc2ccccc2)C(=O)NC(Cc2ccc(O)cc2)C(=O)O)cc1 (stereo not drawn) [Compound 25] (Tos-Cys(Bn)-Tyr-OH; configuration not given here)
- Ki [11]: > 100 µM

Compound: CCOC(=O)CC/C(=C\NC(=O)c1ccccc1)NC(=O)c1ccccc1 [Compound 26]
- Ki [11]: > 100 µM

Compound: CCCCCCCCC/C(=C\C1=C(C)C(=O)C(OC)=C(OC)C1=O)C(=O)O [Compound E3330, (2E)-2-[(4,5-dimethoxy-2-methyl-3,6-dioxo-1,4-cyclohexadien-1-yl)methylene]undecanoic acid]
- IC50 [12]: 10 µM
- IC50 [13]: ~35 µM
- level of aldehyde reactive sites (ARS) [7]: returned to control levels by 18 h
- level of ARS in combination with MeLex [7]: dropped off
- LD50 of MeLex in the presence of LD10 concentration of inhibitor [8]: little or no contribution
- inhibition of APE-1 endonuclease activity [14]: 3 fold
- E3330 concentration for approximately 50% decrease in the fluorescence of 4 [15]: approximately 12 μM
- IC50 [16]: ~35 µM
- LD50 of MeLex in the presence of LD10 concentration of inhibitor [9]: 128 µM

Compound: CC[n+]1c(-c2ccccc2)c2cc(N)ccc2c2ccc(N)cc21 [EtBr, ethidium bromide]
- Kd [17]: 1800 nM
- Kd [18]: ~1000 nM
- Kd [19]: 1600 nM
- stronger binding to DNA with a bulge than to double-stranded DNA [20]: ~10 fold
- level of aldehyde reactive sites (ARS) [7]: no affect
- level of ARS in combination with MeLex [7]: dropped off

Compound: methyl 3-(1-methyl-5-(1-methyl-5-(propylcarbamoyl)-1H-pyrrol-3-ylcarbamoyl)-1H-pyrrol-3-ylamino)-3-oxopropane-1-sulfonate [MeLex, reference compound]
- LD50 ([2]; short term (72 h) MTS assay, compound alone): 250 µM and 267 µM
- LD50 ([6]; long term assay, compound alone): 12 µM and 9.9 µM
- induction of ARS ([7]; 80 μM MeLex, through the first 4 h): 36 /10^5 nucleotides
